This passage reports EC50 and IC50 results from patent US12264156B2, “Compounds and pharmaceutical compositions thereof for the treatment of diseases” (GALAPAGOS NV, priority 2018, dated 2025).

For experiment [1], the system named is LPS-induced TNFα in monocyte-derived macrophages (MdM). In words: MdM assay: LPS-triggered TNFα (ELISA). To be noted: Homo sapiens, Macrophage, 20 h, monocyte-derived macrophages, LPS 200 ng/mL, supernatant after 20 h; read-out: TNFα EC50. Format: cell-based, human. In a few lines:
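Human monocyte-derived macrophages from CD14+ bead-selected buffy-coat PBMCs, used on day 10, pre-treated with compound for 1 h at 37 °C (0.2% DMSO), then stimulated with 200 ng/mL LPS. Supernatant taken after 20 h for TNFα sandwich ELISA (IL-10 at 2 h).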
A general note: ELISA stands for enzyme-linked immunosorbent assay.

In experiment [2] the target is T1, SIK3 (Homo sapiens, UniProt Q9Y2K2).
T1 construct: purchased SignalChem S12-11G-100
Put plainly: ADP-Glo kinase assay, SIK3. To be noted: ADP-Glo SIK kinase assay. The experiment is classed as biochemical. In a few lines: (§1)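 ADP-Glo luminescent assay of ADP formed by SIK2 or SIK3 with substrate after ATP addition, 120 min at RT. Remaining ATP depleted 40 min, then ADP converted to ATP and read by luciferase luminescence after 30 min. Controls: 1% DMSO and 10 μM staurosporine (final).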
For orientation: In ADP-Glo the light output rises with the ADP produced.

Experiment [3] deals with T2, SIK1 (Homo sapiens, UniProt P57059).
T2 construct: purchased Carna Biosciences 02-131
In words: ADP-Glo kinase assay, SIK1. Format: biochemical. To be noted: ADP-Glo SIK kinase assay. In a few lines:
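Enzyme–substrate mix was started with ATP and incubated 120 min at RT. ADP formed was quantified by ADP-Glo: 40 min ATP depletion, then 30 min detection reagent converting ADP to ATP for luciferase luminescence, which rises with kinase activity. Controls: 1% DMSO and 10 μM staurosporine (final).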

Experiment [4] deals with T3, SIK2 (Homo sapiens, UniProt Q9H0K1).
T3 construct: purchased ThermoFisher Scientific PV4792
Put plainly: ADP-Glo kinase assay, SIK2. Format: biochemical. To be noted: ADP-Glo SIK kinase assay. In a few lines:
as §1

T3 sequence (Q9H0K1 whole entry): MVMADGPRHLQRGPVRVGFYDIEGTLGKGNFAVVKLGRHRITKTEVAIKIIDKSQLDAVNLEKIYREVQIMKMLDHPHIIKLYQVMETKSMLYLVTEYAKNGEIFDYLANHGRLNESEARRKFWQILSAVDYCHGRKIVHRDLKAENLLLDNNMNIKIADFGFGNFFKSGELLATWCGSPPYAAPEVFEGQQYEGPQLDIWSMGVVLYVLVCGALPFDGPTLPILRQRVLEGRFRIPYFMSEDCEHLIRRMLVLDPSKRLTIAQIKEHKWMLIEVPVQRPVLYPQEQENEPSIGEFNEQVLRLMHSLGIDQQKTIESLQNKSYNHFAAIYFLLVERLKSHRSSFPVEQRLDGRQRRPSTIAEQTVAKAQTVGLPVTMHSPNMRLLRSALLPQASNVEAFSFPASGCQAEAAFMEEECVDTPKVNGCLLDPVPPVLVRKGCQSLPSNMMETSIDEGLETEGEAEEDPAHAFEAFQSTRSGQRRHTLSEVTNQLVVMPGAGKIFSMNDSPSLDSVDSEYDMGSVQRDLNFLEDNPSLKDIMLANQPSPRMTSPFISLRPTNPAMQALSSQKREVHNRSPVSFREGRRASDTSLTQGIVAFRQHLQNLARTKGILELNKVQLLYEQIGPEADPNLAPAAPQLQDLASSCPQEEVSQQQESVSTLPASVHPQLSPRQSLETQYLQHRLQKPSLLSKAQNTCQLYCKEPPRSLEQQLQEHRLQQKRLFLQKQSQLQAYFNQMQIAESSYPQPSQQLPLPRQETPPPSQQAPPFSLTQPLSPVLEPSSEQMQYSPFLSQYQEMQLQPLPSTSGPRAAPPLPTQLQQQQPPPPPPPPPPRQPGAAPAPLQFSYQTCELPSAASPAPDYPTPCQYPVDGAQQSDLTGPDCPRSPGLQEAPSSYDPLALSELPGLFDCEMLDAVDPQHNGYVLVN
T2 sequence (P57059 whole entry): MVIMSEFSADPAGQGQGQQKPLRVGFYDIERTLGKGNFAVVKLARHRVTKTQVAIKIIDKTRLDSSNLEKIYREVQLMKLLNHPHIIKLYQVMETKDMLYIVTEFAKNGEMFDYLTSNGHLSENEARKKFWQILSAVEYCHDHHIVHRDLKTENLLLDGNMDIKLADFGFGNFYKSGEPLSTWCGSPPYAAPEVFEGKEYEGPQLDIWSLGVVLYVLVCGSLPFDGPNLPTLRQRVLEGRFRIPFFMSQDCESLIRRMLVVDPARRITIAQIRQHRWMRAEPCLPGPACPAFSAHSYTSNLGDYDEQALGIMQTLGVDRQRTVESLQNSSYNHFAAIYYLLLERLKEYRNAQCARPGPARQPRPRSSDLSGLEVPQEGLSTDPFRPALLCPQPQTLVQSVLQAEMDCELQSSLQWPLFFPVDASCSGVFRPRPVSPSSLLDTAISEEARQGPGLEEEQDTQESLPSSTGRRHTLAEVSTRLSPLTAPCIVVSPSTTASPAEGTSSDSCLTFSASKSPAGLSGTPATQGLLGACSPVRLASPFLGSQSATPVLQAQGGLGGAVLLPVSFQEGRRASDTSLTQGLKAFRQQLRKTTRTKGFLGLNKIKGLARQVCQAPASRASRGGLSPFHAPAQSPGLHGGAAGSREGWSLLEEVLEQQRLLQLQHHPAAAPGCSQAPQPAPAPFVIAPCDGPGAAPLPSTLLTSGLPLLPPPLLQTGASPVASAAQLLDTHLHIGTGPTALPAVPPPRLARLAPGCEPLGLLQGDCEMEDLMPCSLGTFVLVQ
T1 sequence (Q9Y2K2 whole entry): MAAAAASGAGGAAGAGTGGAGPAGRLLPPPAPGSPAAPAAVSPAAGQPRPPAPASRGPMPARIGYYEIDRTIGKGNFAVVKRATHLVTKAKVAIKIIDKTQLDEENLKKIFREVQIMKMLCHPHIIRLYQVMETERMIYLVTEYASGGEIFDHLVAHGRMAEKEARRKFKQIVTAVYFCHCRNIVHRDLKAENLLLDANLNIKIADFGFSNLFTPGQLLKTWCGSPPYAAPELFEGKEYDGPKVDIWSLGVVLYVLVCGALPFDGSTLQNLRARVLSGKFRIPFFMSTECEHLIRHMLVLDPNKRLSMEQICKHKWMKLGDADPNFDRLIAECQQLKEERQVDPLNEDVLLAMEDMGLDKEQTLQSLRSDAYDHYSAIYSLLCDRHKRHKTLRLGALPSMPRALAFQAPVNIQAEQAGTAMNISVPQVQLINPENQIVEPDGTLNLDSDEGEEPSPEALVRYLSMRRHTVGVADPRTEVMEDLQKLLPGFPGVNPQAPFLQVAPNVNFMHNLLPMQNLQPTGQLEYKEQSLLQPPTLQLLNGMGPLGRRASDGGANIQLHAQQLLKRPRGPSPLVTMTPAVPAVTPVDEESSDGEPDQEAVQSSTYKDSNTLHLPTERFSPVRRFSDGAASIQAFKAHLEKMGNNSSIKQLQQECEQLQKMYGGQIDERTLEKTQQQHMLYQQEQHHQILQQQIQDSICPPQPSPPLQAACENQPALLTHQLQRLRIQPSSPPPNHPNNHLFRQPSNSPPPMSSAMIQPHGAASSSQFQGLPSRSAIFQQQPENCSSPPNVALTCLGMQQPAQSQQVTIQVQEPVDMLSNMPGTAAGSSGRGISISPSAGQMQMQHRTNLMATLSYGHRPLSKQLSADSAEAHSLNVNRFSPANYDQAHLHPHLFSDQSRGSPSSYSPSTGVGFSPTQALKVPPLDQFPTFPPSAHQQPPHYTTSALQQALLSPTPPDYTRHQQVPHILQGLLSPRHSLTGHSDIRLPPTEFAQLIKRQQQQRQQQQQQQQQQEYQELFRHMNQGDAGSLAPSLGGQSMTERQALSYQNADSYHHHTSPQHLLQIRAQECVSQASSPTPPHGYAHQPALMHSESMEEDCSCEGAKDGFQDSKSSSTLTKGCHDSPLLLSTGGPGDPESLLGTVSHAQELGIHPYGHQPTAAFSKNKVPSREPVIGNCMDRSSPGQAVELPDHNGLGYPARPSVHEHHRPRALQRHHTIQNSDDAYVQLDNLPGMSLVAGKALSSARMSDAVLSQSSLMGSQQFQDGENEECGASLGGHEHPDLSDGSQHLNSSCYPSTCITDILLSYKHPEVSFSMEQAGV

A word on the EC50: it is the concentration needed to bring the measured effect to its halfway point. The IC50 is the concentration that gives 50% inhibition. As for `CCOC(=O)C1(F)CCN(CC(O)COc2ccn3c(-c4cc(OC)c(C(=O)NC5CC5)c(OC(F)F)c4)cnc3c2)CC1` (stereo not shown) [compound 384, ethyl 1-[3-[3-[4-(cyclopropylcarbamoyl)-3-(difluoromethoxy)-5-methoxy-phenyl]imidazo[1,2-a]pyridin-7-yl]oxy-2-hydroxy-propyl]-4-fluoro-piperidine-4-carboxylate], in experiment [1], the EC50 lay within 0.1 to 100 nM. Besides, the results for the 50% inhibitory concentration (IC50) in experiment [2], in experiment [3] and in experiment [4] were 0.01 to 10 nM, 10 to 100 nM and 0.01 to 10 nM, respectively.
For the molecule `CCN1CCCCC1COc1ccn2c(-c3cc(OC)c(C(=O)NC4CC4)c(OC(F)F)c3)cnc2c1` (stereo not shown) [compound 83, N-cyclopropyl-2-(difluoromethoxy)-4-[7-[(1-ethyl-2-piperidyl)methoxy]imidazo [1,2-a]pyridin-3-yl]-6-methoxy-benzamide], the EC50 in experiment [1] fell in the range of 100 to 1000 nM. Also, the IC50 is 0.01 to 10 nM in experiment [2], 100 to 500 nM in experiment [3] and 0.01 to 10 nM in experiment [4].
For the molecule `CCN(CC)CCOc1ccn2c(-c3cc4c(c(OC)c3)C(=O)N(CC(F)(F)F)CC4)cnc2c1` [compound 128, 6-[7-[2-(diethylamino)ethoxy]imidazo[1,2-a]pyridin-3-yl]-8-methoxy-2-(2,2,2-trifluoroethyl)-3,4-dihydroisoquinolin-1-one], the EC50 in experiment [1] fell in the range of 100 to 1000 nM. Besides, the IC50 in experiment [2] was in the range of 0.01 to 10 nM; in experiment [3], 100 to 500 nM; in experiment [4], 0.01 to 10 nM.
As for `CN(C)CCOc1ccn2c(-c3cc(OC(F)F)c(C(=O)NC4CC4)c(OC(F)F)c3)cnc2c1` [compound 156, N-cyclopropyl-2,6-bis(difluoromethoxy)-4-[7-[2-(dimethylamino)ethoxy]imidazo[1,2-a]pyridin-3-yl]benzamide], the EC50 in experiment [1] lay within 100 to 1000 nM. Also, the IC50 was in the range of 0.01 to 10 nM in experiment [2], 10 to 100 nM in experiment [3] and 0.01 to 10 nM in experiment [4].
Regarding `COc1cc(-c2cnc3cc(OCCCN4CCNCC4)ccn23)cc(OC(F)F)c1C(=O)NC1CC1` [compound 278, N-cyclopropyl-2-(difluoromethoxy)-6-methoxy-4-[7-(3-piperazin-1-ylpropoxy)imidazo[1,2-a]pyridin-3-yl]benzamide], in experiment [1], the EC50 is 1000 to 5000 nM. The IC50 in experiment [2], in experiment [3] and in experiment [4] was 0.01 to 10 nM each time.
Regarding `COc1cc(-c2cnc3cc(OCC4CN(C)C4)ccn23)cc(OC(F)F)c1C(=O)NC1CC1` [Cpd 14, N-cyclopropyl-2-(difluoromethoxy)-6-methoxy-4-[7-[(1-methylazetidin-3-yl)methoxy]imidazo[1,2-a]pyridin-3-yl]benzamide], in experiment [1], the EC50 lay in the range of 100 to 1000 nM. In addition, the results for the IC50 in experiment [2], in experiment [3] and in experiment [4] were 0.01 to 10 nM, 10 to 100 nM and 0.01 to 10 nM, respectively.
Turning to `COc1cc(-c2cnc3cc(OCCN)ccn23)cc(OC(F)F)c1C(=O)NC1CC1` [compound 118, 4-[7-(2-aminoethoxy)imidazo[1,2-a]pyridin-3-yl]-N-cyclopropyl-2-(difluoromethoxy)-6-methoxy-benzamide], the EC50 in experiment [1] was in the range of 100 to 1000 nM. In addition, the figures for the IC50 in experiment [2], in experiment [3] and in experiment [4] were 0.01 to 10 nM, 10 to 100 nM and 0.01 to 10 nM, respectively.
Regarding `COc1cc(-c2cnc3cc(OCC4(C)CN(C)C4)ccn23)cc(OC(F)F)c1C(=O)NC1CC1` [compound 220, N-cyclopropyl-2-(difluoromethoxy)-4-[7-[(1,3-dimethylazetidin-3-yl)methoxy]imidazo[1,2-a]pyridin-3-yl]-6-methoxy-benzamide], the EC50 in experiment [1] lay within 100 to 1000 nM. Also, the results for the IC50 in experiment [2], in experiment [3] and in experiment [4] were 0.01 to 10 nM, 10 to 100 nM and 0.01 to 10 nM, respectively.
In the case of `COc1cc(-c2cnc3cc(OCCN4CC(F)(F)C4)ccn23)cc2c1C(=O)N(CC(F)(F)F)CC2` [Cpd 244, 6-[7-[2-(3,3-difluoroazetidin-1-yl)ethoxy]imidazo[1,2-a]pyridin-3-yl]-8-methoxy-2-(2,2,2-trifluoroethyl)-3,4-dihydroisoquinolin-1-one], the EC50 in experiment [1] lay in the range of 100 to 1000 nM. In addition, the IC50 was in the range of 0.01 to 10 nM in experiment [2], 100 to 500 nM in experiment [3] and 0.01 to 10 nM in experiment [4].
On to `COc1cc(-c2cnc3cc(OCCN4CCN(C(C)C)CC4)ccn23)cc(OC(F)F)c1C(=O)NC1CC1` [compound 276, N-cyclopropyl-2-(difluoromethoxy)-4-[7-[2-(4-isopropylpiperazin-1-yl)ethoxy]imidazo[1,2-a]pyridin-3-yl]-6-methoxy-benzamide], for which the EC50 in experiment [1] fell in the range of 100 to 1000 nM. Also, the IC50 in experiment [2] fell in the range of 0.01 to 10 nM; in experiment [3], 10 to 100 nM; in experiment [4], 0.01 to 10 nM.
Regarding `CNCCOc1ccn2c(-c3cc(OC)c(C(=O)NC4CC4)c(OC(F)F)c3)cnc2c1` [compound 117, N-cyclopropyl-2-(difluoromethoxy)-6-methoxy-4-[7-[2-(methylamino)ethoxy]imidazo[1,2-a]pyridin-3-yl]benzamide], the EC50 in experiment [1] was 100 to 1000 nM. Further, the half-inhibitory concentration (IC50) in experiment [2] was 0.01 to 10 nM; in experiment [3], 10 to 100 nM; in experiment [4] it was 0.01 to 10 nM.
For `COc1cc(-c2cnc3cc(OCC(O)CN4CCOCC4)ccn23)cc(OC(F)F)c1C(=O)NC1CC1` (stereo not shown) [Cpd 330, N-cyclopropyl-2-(difluoromethoxy)-4-[7-(2-hydroxy-3-morpholino-propoxy)imidazo[1,2-a]pyridin-3-yl]-6-methoxy-benzamide], the concentration giving a half-maximal response (EC50) in experiment [1] was in the range of 0.1 to 100 nM. For the same molecule, the results for the IC50 in experiment [2], in experiment [3] and in experiment [4] were 0.01 to 10 nM, 10 to 100 nM and 0.01 to 10 nM, respectively.
In the case of `COc1cc(-c2cnc3cc(OCCCN4CC5(COC5)C4)ccn23)cc(OC(F)F)c1C(=O)NC1CC1` [compound 273, N-cyclopropyl-2-(difluoromethoxy)-6-methoxy-4-[7-[3-(2-oxa-6-azaspiro[3.3]heptan-6-yl)propoxy]imidazo[1,2-a]pyridin-3-yl]benzamide], the EC50 in experiment [1] lay within 100 to 1000 nM. Further, the IC50 in experiment [2] is 0.01 to 10 nM; in experiment [3], 10 to 100 nM; in experiment [4] it was 0.01 to 10 nM.
`COc1cc(-c2cnc3cc(OC[C@H]4COCCO4)ccn23)cc2c1C(=O)NCC2` [compound 242, 6-[7-[[(2R)-1,4-dioxan-2-yl]methoxy]imidazo[1,2-a]pyridin-3-yl]-8-methoxy-3,4-dihydro-2H-isoquinolin-1-one]: the EC50 in experiment [1] fell in the range of 100 to 1000 nM. Further, the IC50 in experiment [2] was 0.01 to 10 nM; in experiment [3], 10 to 100 nM; in experiment [4] it was 0.01 to 10 nM.
Turning to `COc1cc(-c2cnc3cc(OCc4ccnn4C)ccn23)cc(OC(F)F)c1C(=O)NC1CC1` [compound 44, N-cyclopropyl-2-(difluoromethoxy)-6-methoxy-4-[7-[(2-methylpyrazol-3-yl)methoxy]imidazo[1,2-a]pyridin-3-yl] benzamide], the EC50 in experiment [1] fell in the range of 100 to 1000 nM. Besides, the IC50 in experiment [2] lay in the range of 0.01 to 10 nM; in experiment [3], 10 to 100 nM; in experiment [4] it was 0.01 to 10 nM.
Turning to `COc1cc(-c2cnc3cc(OC[C@H]4CCCN4C)ccn23)cc(OC(F)F)c1C(=O)NC1CC1` [compound 81, N-cyclopropyl-2-(difluoromethoxy)-6-methoxy-4-[7-[[(2R)-1-methylpyrrolidin-2-yl]methoxy]imidazo[1,2-a]pyridin-3-yl]benzamide], in experiment [1], the EC50 lay in the range of 100 to 1000 nM. The figures for the IC50 in experiment [2], in experiment [3] and in experiment [4] were 0.01 to 10 nM, 100 to 500 nM and 0.01 to 10 nM, respectively.
